Laboratory results: patent US8431563B2 (priority 2010, dated 2013)
Like-named read-outs stand apart in the source and are kept apart here.

Key:
[1] = biological target: T1, GKRP (Glucokinase Regulatory Protein) with human His-hepatic GK (Homo sapiens, UniProt Q14397); test: biochemical
T1 sequence (Q14397 1-625): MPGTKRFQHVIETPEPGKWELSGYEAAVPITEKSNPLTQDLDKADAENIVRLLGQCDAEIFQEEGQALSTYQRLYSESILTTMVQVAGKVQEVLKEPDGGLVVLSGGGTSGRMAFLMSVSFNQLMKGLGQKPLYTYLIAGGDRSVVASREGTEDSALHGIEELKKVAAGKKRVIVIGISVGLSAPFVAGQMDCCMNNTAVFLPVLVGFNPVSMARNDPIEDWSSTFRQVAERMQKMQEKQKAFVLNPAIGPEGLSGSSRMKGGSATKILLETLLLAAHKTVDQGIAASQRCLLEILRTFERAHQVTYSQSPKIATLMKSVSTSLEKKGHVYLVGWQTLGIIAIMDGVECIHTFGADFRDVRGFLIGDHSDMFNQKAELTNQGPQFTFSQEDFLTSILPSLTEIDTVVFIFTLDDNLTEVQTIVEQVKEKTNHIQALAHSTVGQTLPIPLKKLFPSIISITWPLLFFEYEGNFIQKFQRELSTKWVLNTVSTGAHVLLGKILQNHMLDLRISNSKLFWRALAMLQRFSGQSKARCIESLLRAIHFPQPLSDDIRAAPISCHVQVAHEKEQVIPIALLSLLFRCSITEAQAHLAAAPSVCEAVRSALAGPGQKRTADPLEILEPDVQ
Procedure: GKRP LC MS/MS-2 Biochemical Assay
This assay is used to directly measure the formation of ^13C-glucose-6-phosphate from ^13C-glucose by LC MS/MS. Begin by preparing the following solutions: Compound Buffer (CB): 50 mM Tris, pH 7.5/4 mM MgCl2/6% DMSO/fresh 10 mM DTT from 1M frozen stock. Enzyme Buffer (EB): 50 mM Tris, pH 7.5/4 mM MgCl2/6% DMSO/fresh 0.1% BSA/fresh 0.01% Brij-35 (10% BSA and 1% Brij-35 stock). GK (Glucokinase) Working Stock (5×): Dilute human His-hepatic GK to 30 nM in EB buffer. […] After 30 minutes add 10 μl of GK Working Stock (5×). Re-seal the plate and incubate for another 30 minutes at room temperature while mixing. After the second 30 minutes, stop the reaction by the addition of 50 μl of 100% acetonitrile, seal, and mix for 5-10 minutes. Run 10 μl of this sample through the LC MS/MS (API 3200, Applied Biosystems, Carlsbad, Calif.).

[2] = biological target: T2, interaction between glucokinase (GK) and glucokinase regulatory protein (GKRP) (Homo sapiens, UniProt Q14397); test: biochemical; type: binding
T2 sequence (Q14397 1-625): T1 sequence (Q14397 1-625)
Procedure: GK-GKRP Binding Assay Protocol
This assay is used to directly measure the interaction between glucokinase (GK) and glucokinase regulatory protein (GKRP). Begin by preparing the following solutions. Assay Buffer: 20 mM Tris, pH 7.5/0.05% BSA/1 mM DTT/1 μM sorbitol-6-phosphate. […] Combine the following reagents in a white 96-well half area plate. Pipette 14 μl of the diluted avi-tagged GKRP into each well. Add 1 μl of compound to be tested and incubate at room temperature for 20 minutes. After 20 minutes, add 5 μl of assay buffer containing 6 nM GK-fluorescein. […] Incubate in a dark room for 2 hours at room temperature. After 2 hours read the plate using an Envision plate reader (Perkin Elmer, Waltham Mass.).

[3] = avi-tagged GKRP, GK-fluorescein, AlphaScreen beads, read-out: GK-GKRP IC50 (Binding)
[4] = 13C-glucose-6-phosphate formation, 280 nM GKRP (10×), 30 nM GK (5×), read-out: GK-GKRP EC50 (LC MS/MS-2)
[5] = GK-GKRP EC50 (LC MS/MS-2), 13C-glucose-6-phosphate formation, 280 nM GKRP (10×), 30 nM GK (5×)

Structure (SMILES)	IC50 [2, 3] [µM]	EC50 [1, 4] [µM]	further results
CC(O)(c1ccc(N2CCN(S(=O)(=O)c3cccs3)C[C@@H]2CN2CC3(COC3)C2)cc1)C(F)(F)F (mixture of isomers) [Example 84, 1,1,1-trifluoro-2-(4-((2S)-2-(2-oxa-6-azaspiro[3.3]hept-6-ylmethyl)-4-(2-thiophenylsulfonyl)-1-piperazinyl)phenyl)-2-propanol]	0.667		EC50 ([1]; GK-GKRP EC50 (LC MS/MS-2)): 0.659 µM
CC1CS(=O)(=O)CCN1C[C@H]1CN(S(=O)(=O)c2cccs2)CCN1c1ccc(C(C)(O)C(F)(F)F)cc1 (mixture of isomers) [Example 86, 1,1,1-trifluoro-2-(4-((2S)-2-((3-methyl-1,1-dioxido-4-thiomorpholinyl)methyl)-4-(2-thiophenylsulfonyl)-1-piperazinyl)phenyl)-2-propanol]	0.061	0.115	
CC(O)(c1ccc(N2CCN(S(=O)(=O)c3cccs3)C[C@@H]2CN2CCS(=O)(=O)CC2C2CC2)cc1)C(F)(F)F (mixture of isomers) [Example 87, 2-(4-((2S)-2-((3-cyclopropyl-1,1-dioxido-4-thiomorpholinyl)methyl)-4-(2-thiophenylsulfonyl)-1-piperazinyl)phenyl)-1,1,1-trifluoro-2-propanol]	0.229	0.246	
C[C@H]1COCCN1C[C@H]1CN(S(=O)(=O)c2nccs2)CCN1c1ccc(C(C)(O)C(F)(F)F)cc1 (mixture of isomers) [Example 102, 1,1,1-trifluoro-2-(4-((2S)-2-(((3S)-3-methyl-4-morpholinyl)methyl)-4-(1,3-thiazol-2-ylsulfonyl)-1-piperazinyl)phenyl)-2-propanol]	0.134	0.137	
CCOC(=O)CC1COCCN1C[C@H]1CN(S(=O)(=O)c2cccs2)CCN1c1ccc(C(C)(O)C(F)(F)F)cc1 (mixture of isomers) [Example 113]	0.333	0.308	
CN(C)C(=O)CC1COCCN1C[C@H]1CN(S(=O)(=O)c2cccs2)CCN1c1ccc(C(C)(O)C(F)(F)F)cc1 (mixture of isomers) [Example 114, N,N-dimethyl-2-(4-(((2S)-4-(2-thiophenylsulfonyl)-1-(4-(2,2,2-trifluoro-1-hydroxy-1-methylethyl)phenyl)-2-piperazinyl)methyl)-3-morpholinyl)acetamide]	0.09	0.124	
CC(O)(c1ccc(N2CCN(S(=O)(=O)c3cccs3)C[C@@H]2COCc2ccco2)cc1)C(F)(F)F (mixture of isomers) [Example 116, 1,1,1-trifluoro-2-(4-((2R)-2-((2-furanylmethoxy)methyl)-4-(2-thiophenylsulfonyl)-1-piperazinyl)phenyl)-2-propanol]	0.284	0.103	
CC1(COC[C@H]2CN(S(=O)(=O)c3cccs3)CCN2c2ccc(C(C)(O)C(F)(F)F)cc2)COC1 (mixture of isomers) [Example 117, 1,1,1-trifluoro-2-(4-((2R)-2-(((3-methyl-3-oxetanyl)methoxy)methyl)-4-(2-thiophenylsulfonyl)-1-piperazinyl)phenyl)-2-propanol]	0.467	0.463	
CC(O)(c1ccc(N2CCN(S(=O)(=O)c3cccs3)C[C@@H]2COCC2CCCO2)cc1)C(F)(F)F (mixture of isomers) [Example 118, 1,1,1-trifluoro-2-(4-((2R)-2-((tetrahydro-2-furanylmethoxy)methyl)-4-(2-thiophenylsulfonyl)-1-piperazinyl)phenyl)-2-propanol]	0.57	1.11	
Cn1cnc(COC[C@H]2CN(S(=O)(=O)c3cccs3)CCN2c2ccc(C(C)(O)C(F)(F)F)cc2)c1 (mixture of isomers) [Example 119, 1,1,1-trifluoro-2-(4-((2R)-2-(((1-methyl-1H-imidazol-4-yl)methoxy)methyl)-4-(2-thiophenylsulfonyl)-1-piperazinyl)phenyl)-2-propanol]	0.392	0.169	
CC(O)(c1ccc(N2CCN(S(=O)(=O)c3cccs3)C[C@@H]2CNC2CCOCC2)cc1)C(F)(F)F (mixture of isomers) [Example 120, 1,1,1-trifluoro-2-(4-((2S)-2-((tetrahydro-2H-pyran-4-ylamino)methyl)-4-(2-thiophenylsulfonyl)-1-piperazinyl)phenyl)-2-propanol]	0.493		EC50 [1, 5]: 0.656 µM
C[C@H]1COCCN1C[C@H]1CN(S(=O)(=O)c2ccc(N)nc2)CCN1c1ccc(C(C)(O)C(F)(F)F)cc1 (mixture of isomers) [Example 125, 2-(4-((2S)-4-((6-amino-3-pyridinyl)sulfonyl)-2-(((3S)-3-methyl-4-morpholinyl)methyl)-1-piperazinyl)phenyl)-1,1,1-trifluoro-2-propanol]	0.003	0.02	
CC(O)(c1cnc(N2CCN(S(=O)(=O)c3ccc(N)nc3)C[C@@H]2CC2CCOCC2)nc1)C(F)(F)F (mixture of isomers) [Example 131]	0.124	0.102	
CC(O)(c1cnc(N2CCN(S(=O)(=O)c3ccc(N)s3)C[C@@H]2CC2CCOCC2)nc1)C(F)(F)F (mixture of isomers) [Example 135, 2-(2-((2S)-4-((5-amino-2-thiophenyl)sulfonyl)-2-(tetrahydro-2H-pyran-4-ylmethyl)-1-piperazinyl)-5-pyrimidinyl)-1,1,1-trifluoro-2-propanol]	0.055	0.108	
CC(O)(c1ccc(N2CCN(S(=O)(=O)c3ccc(N)s3)C[C@@H]2Cc2ccccc2)cc1)C(F)(F)F (mixture of isomers) [Example 136, 2-(4-((2S)-4-((5-amino-2-thiophenyl)sulfonyl)-2-benzyl-1-piperazinyl)phenyl)-1,1,1-trifluoro-2-propanol]	0.25	0.146	
C[C@H]1CN(S(=O)(=O)c2ccc(N)s2)CCN1c1ncc(C(C)(O)C(F)(F)F)cn1 (mixture of isomers) [Example 137, 2-(2-((2S)-4-((5-amino-2-thiophenyl)sulfonyl)-2-methyl-1-piperazinyl)-5-pyrimidinyl)-1,1,1-trifluoro-2-propanol]			EC50 ([1]; GK-GKRP EC50 (LC MS/MS-2)): 0.658 µM; IC50 ([2]; GK-GKRP IC50 (Binding)): 0.281 µM
CC(O)(c1ccc(N2CCN(S(=O)(=O)c3cccs3)C[C@@H]2CN2C3CCCC2CC(=O)C3)cc1)C(F)(F)F (mixture of isomers) [Example 140, 9-(((2S)-4-(2-thiophenylsulfonyl)-1-(4-(2,2,2-trifluoro-1-hydroxy-1-methylethyl)phenyl)-2-piperazinyl)methyl)-9-azabicyclo[3.3.1]nonan-3-one]			EC50 [1, 5]: 0.015 µM; IC50 ([2]; GK-GKRP IC50 (Binding), avi-tagged GKRP, GK-fluorescein, AlphaScreen beads): 0.007 µM
CC(O)(c1ccc(N2CCN(S(=O)(=O)c3cccs3)C[C@@H]2CN2C3CCCC2CC(O)C3)cc1)C(F)(F)F (mixture of isomers) [Example 141, 9-(((2S)-4-(2-thiophenylsulfonyl)-1-(4-(2,2,2-trifluoro-1-hydroxy-1-methylethyl)phenyl)-2-piperazinyl)methyl)-9-azabicyclo[3.3.1]nonan-3-ol (endo)]	0.011		EC50 [1, 5]: 0.026 µM
CC(F)(c1ccc(N2CCN(S(=O)(=O)c3cccs3)C[C@@H]2CN2C3CCCC2CC(F)C3)cc1)C(F)(F)F (mixture of isomers) [Example 142, 3-fluoro-9-(((2S)-1-(4-(1,2,2,2-tetrafluoro-1-methylethyl)phenyl)-4-(2-thiophenylsulfonyl)-2-piperazinyl)methyl)-9-azabicyclo[3.3.1]nonane (exo)]	0.047	0.189	
